# Experiments:
# [1] = test system: rice line RTA1 (ML0831265-01493, G2096S); assay: Field trait tolerance trial, FOP herbicides applied sequentially at 2-leaf and pre-flood; type: in vivo, Oryza sativa; conditions: for injury rates: RTA1, 2× application rates
# Source text: (§1) FIG. 20A-FIG. 20D showing % Injury response data and plot pictures. Material tested included ACCase-inhibitor resistant combined ACCase lines (RTA1+RTA2), the RTA1 and the RTA2 singles and the stack RTA1+HPPDi+HPPDni. Two applications (at the 2 leaf and pre-flood stage) used the same rate for both applications. […] (all images taken 4 weeks post preflood app), FIG. 20D Plat order (left to right) RTA1, RTA2, RTA1+RTA2, RTA1+HPPD i+HPPDni, P1003, R0146.
# (§2) FIG. 21A-FIG. 21E, show plot pictures and % Injury response for ACCase lines RTA1, RTA2, and the stacks RTA1+RTA2 as well as the stack […], when challenged by increasing doses of the main FOP herbicides. […] FIG. 21A untreated control, FIG. 21B 4× Quizalofop, FIG. 21C 4× Fluazifop, FIG. 21D 4× Propaquizafop. 4 weeks post preflood application. Plot order (left to right) G2096S, RTA2, G2096S+RTA2, G2096S+HPPD, P1003, R0146. FIG. 21E graphical representation.
# Yield response after sequential 2-leaf and pre-flood quizalofop application.
# (§3) Evaluation of the novel herbicide resistance genes, subject of this application, was conducted with a range of suitable herbicide doses that cover application rates typically used for rice farming operations while also taking into consideration possible deviations from the manufacturer-recommended doses. Considering 1×, the recommended manufacturers or best practice recommended dose, the most frequently evaluated additional doses are 2× and 4× with some experiments including other values.
# [2] = test system: common weeds in rice (grass weeds such as barnyard grass); assay: Weed control in rice crops; type: in vivo; conditions: in vivo
# Description: FIGS. 5A and 5B are photographs of results of trait tolerance trials; weed control by mesotrione herbicide applied pre-planting was evaluated; the plots were planted with a hybrid of the HPPD tolerant line ML0831266-03093; just before planting, the plot on the right FIG. 5B received an application of mesotrione at 210 gmai/ha; the plot on the left FIG. 5A had no herbicide applied either pre-plant or post-emergence; pictures were taken four weeks after planting showing differences in weed appearance.
# While testing the tolerant lines, the parent lines were also tested to serve as controls and as an indication of commercial potential as a red rice/wild weedy rice control strategy.
# Rice is tolerant to certain ACCase inhibitor herbicides, for example cyhalofop is registered for use in rice. However other ACCase herbicides kill or severely injure rice to varying degrees. […] The applied rates of both types of herbicides giving the weed control are well within the tolerance level of the respective ACCase and HPPD tolerant lines including the combined lines carrying tolerance to both HPPD and ACCase herbicides.
# [3] = test system: rice lines RTA1, RTA2, RTA1+RTA2, RTA1+HPPD; assay: Field trial with increasing doses of FOP herbicides, all trait combinations; type: in vivo, Oryza sativa
# Source text: 4 weeks post preflood application. […] FIG. 21E graphical representation.
# [4] = test system: rice line PL1214418M2-73009 and new lines that inherited the ACCase tolerance; assay: Trial of recovery of ACCase tolerance in the combined line; type: in vivo, Oryza sativa; conditions: 0.5×, 1×, 2×, 4× of label rate
# Description: Another trial was conducted to confirm recovery of the ACCase inhibitor resistance from the RTA1 mutation as in the line ML0831265-01493. In this trial the new line PL1214418-73009 with combined HPPD and ACCase tolerance was planted in a row along with other various lines including the original donor line ML0831265-01493 (planted in a plot), ML0831266-03093, P1003, R0146 parent line for ACCase tolerance. The lines were all tested with the ACCase herbicides fluazifop at 0.5×, 1×, 2×, and 4× multiples of the label application rate (210 gmai/ha) and quizalofop at 0.5×, 1×, 2×, and 4× multiples of the label application rate (77 gmai/ha).
# [5] = test system: rice line RTA1+RTA2 (RL1225468, double homozygous stack); assay: Field trait tolerance trial, FOP herbicides applied sequentially at 2-leaf and pre-flood
# Source text: as §1, §2, §3
# [6] = test system: mutant plants carrying RTA2 (R0146 X ML-083126502283F2); assay: MutMap F2 population herbicide response scoring; type: in vivo, Oryza sativa; conditions: 3 week old plants, scored 21 days after spray
# Source text: A MutMap population was F2 plants from a cross between rice line R0146 X ML-083126502283F2. Pictures were taken 16 days post herbicide spray.
# The herbicide Quizalofop was sprayed on the test fields. […] The plants were scored first at 16 days after the herbicide spray and then at 21 days after herbicide spray.
# Mutant plants carrying the ‘unknown mutation RTA2’ were resistant. 3 week old plants were sprayed with Quizalofop and the herbicide response was scored 21 days after the spray. Susceptible symptoms were already observed 7 days after the Quizalofop spray, but scoring was done at 21 days. […] Few plants scored 3 (little damage on leaves or new leaf growth observed, and most likely plants will survive) or score 5 (half of the canopy is damaged and hard to predict whether the plants will survive or not), or score 7 (more damage on leaves, plants will not survive).
# [7] = test system: rice line ML0831265-02283 (RTA2); assay: Field validation of tolerance to ACCase herbicide, percent injury 21 days after application; type: in vivo, Oryza sativa; conditions: 2× and 4× of labeled rate (77 gmai/ha), four leaf stage
# Source text: After screening a large mutant population, the line ML0831265-02283 also survived application of the ACCase herbicide quizalofop. The line was increased to obtain sufficient seed for larger trials to evaluate its tolerance to ACCase herbicides. The tolerance to ACCase herbicides in line ML0831265-02283 was validated by planting in the field plots (5 feet by 10 feet) of the line, the non-mutant parent line R0146, a second non-mutant line P1003, and the ACCase tolerant line ML0831265-01493. The ACCase herbicide quizalofop was applied at the four leaf stage at 0.5×, 1×, 2×, and 4× multiples of the labeled rate (77 gmai/ha). Twenty one days after the herbicide was applied the plots were evaluated for percent injury caused to the rice based on control plots that had no herbicide application (FIG. 6). The data confirms the tolerance of line ML0831265-02283 and it may even carry more tolerance than line ML0831265-01493 as shown by less injury at the 2× and 4× rates of quizalofop.
SMILES,rates of injury compared with the other FOP herbicides ([1]; RTA1),"control of common grass weeds, such as barnyard grass, in rice [2]","usability on the crop ([3]; rates of 2× or less, any trait combination containing RTA1)",tolerance compared with donor line ML0831265-01493 [4],"injury ([5]; RTA1+RTA2, 4×, FIG. 21 trial)",injury rates [1] [%],rates of injury compared with other FOP herbicides ([3]; across all trait combinations),herbicide response [6],percent injury compared with line ML0831265-01493 [7],"yield ([1]; RTA1, 1× and 2× application rates)","injury ([5]; RTA1+RTA2, 4× label rate, 4 weeks post preflood application)","injury ([5]; RTA1+RTA2, high application rates, FIG. 21 trial)","maximum dose tolerated with no phytotoxicity ([5]; double homozygous RTA1-RTA2, 2-leaf stage) [oz/acre]"
CC(Oc1ccc(Oc2ccc(C(F)(F)F)cn2)cc1)C(=O)O (stereo not shown) [Fluazifop],much lower than either of the other FOP herbicides,good control,viable,equivalent tolerance,minimal injury,–,–,–,–,–,–,–,–
CC(C)=NOCCOC(=O)[C@@H](C)Oc1ccc(Oc2cnc3cc(Cl)ccc3n2)cc1 [Propaquizafop],–,–,–,–,–,~40,highest rates of injury,–,–,–,–,–,–
CC(Oc1ccc(Oc2cnc3cc(Cl)ccc3n2)cc1)C(=O)O (stereo not shown) [Quizalofop],–,good control,–,equivalent tolerance,–,~40,–,resistant,less injury,good yield retention,no injury,minimal,80
